Measurements as given in ChEMBL document CHEMBL1938296, “Steroidal C-21 heteroaryl thioethers (Part 2): discovery of orally bioavailable selective glucocorticoid receptor modulators (dissociated steroids)” (Bioorg Med Chem Lett, 2012).
The source made the active and inactive calls. The rule behind the calls is not given here.

Legend:
[1] = target: T1, Glucocorticoid receptor (Homo sapiens, UniProt P04150); test: Transrepression activity at glucocorticoid receptor in human H292 cells assessed as inhibition of TNF-stimulated IL-8 production; type: cell-based
T1 sequence (P04150 whole entry): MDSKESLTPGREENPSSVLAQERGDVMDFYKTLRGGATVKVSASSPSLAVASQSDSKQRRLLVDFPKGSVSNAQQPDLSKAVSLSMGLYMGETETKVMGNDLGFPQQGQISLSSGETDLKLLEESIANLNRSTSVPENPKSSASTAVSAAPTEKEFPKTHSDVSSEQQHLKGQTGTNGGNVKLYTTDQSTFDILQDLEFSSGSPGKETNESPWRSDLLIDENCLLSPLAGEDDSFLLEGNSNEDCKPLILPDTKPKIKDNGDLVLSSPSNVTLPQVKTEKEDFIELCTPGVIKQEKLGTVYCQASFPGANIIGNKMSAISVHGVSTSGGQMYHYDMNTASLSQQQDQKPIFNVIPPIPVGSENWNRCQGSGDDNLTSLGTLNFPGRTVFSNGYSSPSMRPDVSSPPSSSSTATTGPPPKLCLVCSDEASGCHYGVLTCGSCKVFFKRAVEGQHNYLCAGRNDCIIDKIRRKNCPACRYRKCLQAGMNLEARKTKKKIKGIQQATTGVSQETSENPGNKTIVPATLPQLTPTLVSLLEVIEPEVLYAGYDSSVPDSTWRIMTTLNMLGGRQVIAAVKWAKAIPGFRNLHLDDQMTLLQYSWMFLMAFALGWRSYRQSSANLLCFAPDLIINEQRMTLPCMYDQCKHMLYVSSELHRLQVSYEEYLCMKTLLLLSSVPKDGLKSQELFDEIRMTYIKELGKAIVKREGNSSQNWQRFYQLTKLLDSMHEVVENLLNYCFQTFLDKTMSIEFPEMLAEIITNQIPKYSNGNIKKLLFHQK

[2] = target: T2, Glucocorticoid receptor (Rattus norvegicus, UniProt P06536); test: Transactivation of glucocorticoid receptor in rat H42E cells assessed as induction of TAT measuring degradation of tyrosine to p-hydroxy phenyl pyruvate; type: cell-based; details: read-out: IC50 (the source's name)
T2 sequence (P06536 whole entry): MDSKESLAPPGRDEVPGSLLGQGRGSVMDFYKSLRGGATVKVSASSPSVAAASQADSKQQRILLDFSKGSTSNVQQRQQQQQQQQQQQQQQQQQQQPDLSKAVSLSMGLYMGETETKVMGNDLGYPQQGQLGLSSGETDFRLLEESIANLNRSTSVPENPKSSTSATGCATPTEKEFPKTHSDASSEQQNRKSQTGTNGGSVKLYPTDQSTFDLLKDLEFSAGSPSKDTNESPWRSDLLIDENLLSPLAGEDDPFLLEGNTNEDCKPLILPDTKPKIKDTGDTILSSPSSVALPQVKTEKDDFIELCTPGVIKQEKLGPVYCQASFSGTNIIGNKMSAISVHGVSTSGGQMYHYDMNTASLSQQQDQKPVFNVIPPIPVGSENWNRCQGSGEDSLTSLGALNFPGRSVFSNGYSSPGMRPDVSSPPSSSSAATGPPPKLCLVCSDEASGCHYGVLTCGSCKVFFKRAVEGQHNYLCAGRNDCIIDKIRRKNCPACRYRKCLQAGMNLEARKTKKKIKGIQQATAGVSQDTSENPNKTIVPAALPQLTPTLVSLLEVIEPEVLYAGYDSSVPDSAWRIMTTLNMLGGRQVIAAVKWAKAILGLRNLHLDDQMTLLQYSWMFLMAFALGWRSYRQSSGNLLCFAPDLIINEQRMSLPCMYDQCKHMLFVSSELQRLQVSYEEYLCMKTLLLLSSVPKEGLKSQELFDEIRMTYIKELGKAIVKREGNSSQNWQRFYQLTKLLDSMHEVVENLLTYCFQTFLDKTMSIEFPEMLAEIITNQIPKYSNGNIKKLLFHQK

[3] = target: T2, Glucocorticoid receptor; test: Transactivation of glucocorticoid receptor in rat H42E cells assessed as induction of TAT measuring degradation of tyrosine to p-hydroxy phenyl pyruvate at 1 uM relative to prednisolone; type: cell-based; details: read-out: Efficacy
[4] = target: T1, Glucocorticoid receptor; test: Transactivation of glucocorticoid receptor in human HepG2 cells assessed as induction of TAT measuring degradation of tyrosine to p-hydroxy phenyl pyruvate at 1 uM relative to untreated control; type: cell-based; details: hepg2, 1 µM
[5] = tested on: Rattus norvegicus; test: Antiinflammatory activity against Brown Norway rat allergic lung inflammation model assessed as total cell inhibition at 10 mg/kg, po for 3 days; type: functional; parameters: scale not given: the % may be the effect or the level left
[6] = tested on: Rattus norvegicus; test: Toxicity in Brown Norway rat allergic lung inflammation model assessed as decrease in thymus weight at 10 mg/kg, po for 3 days; type: organism-based; parameters: dose 10 mg/kg, route oral; scale not given: the % may be the effect or the level left; details: in vivo, 72 h
[7] = AUC in Brown Norway rat at 10 mg/kg, po; type: ADME, organism-based; parameters: dose 10 mg/kg, route oral; details: plasma
[8] = tested on: Rattus norvegicus; test: Antiinflammatory activity against Brown Norway rat allergic lung inflammation model assessed as total cell inhibition at 0.3 to 30 mg/kg, po for 10 days relative to prednisolone; type: functional, organism-based
[9] = tested on: Rattus norvegicus; test: Toxicity in Brown Norway rat allergic lung inflammation model assessed as decrease in thymus weight at 0.3 to 30 mg/kg, po for 10 days; type: organism-based; parameters: dose 0.3-30 mg/kg, route oral; details: in vivo, 240 h
[10] = tested on: Rattus norvegicus; test: Antiinflammatory activity in ovalbumin-induced allergic Brown Norway rat lung inflammation model assessed as inhibition of forced vital capacity at 3 mg/kg, po qd administered 3 days before ovalbumin-challenge measured 24 hrs of post ovalbumin challenge; type: functional
[11] = tested on: Rattus norvegicus; test: Antiinflammatory activity in ovalbumin-induced allergic Brown Norway rat lung inflammation model assessed as inhibition of forced vital capacity at 10 mg/kg, po qd administered 3 days before ovalbumin-challenge measured 24 hrs of post ovalbumin challenge; type: functional
[12] = tested on: Rattus norvegicus; test: Antiinflammatory activity in ovalbumin-induced allergic Brown Norway rat lung inflammation model assessed as inhibition of forced vital capacity at 30 mg/kg, po qd administered 3 days before ovalbumin-challenge measured 24 hrs of post ovalbumin challenge; type: functional
[13] = tested on: Rattus norvegicus; test: Antiinflammatory activity in po dosed ovalbumin-induced allergic Brown Norway rat lung inflammation model assessed as inhibition of forced vital capacity administered 3 days before ovalbumin-challenge measured 24 hrs of post ovalbumin challenge; type: functional
[14] = tested on: Rattus norvegicus; test: Antiinflammatory activity in rat assessed as inhibition of LPS-induced TNF-alpha secretion up to 50 mg/kg, po; type: functional, organism-based; parameters: dose 50 mg/kg
[15] = target: T3, Progesterone receptor (Homo sapiens, UniProt P06401); test: Inhibition of human progesterone receptor
T3 sequence (P06401 whole entry): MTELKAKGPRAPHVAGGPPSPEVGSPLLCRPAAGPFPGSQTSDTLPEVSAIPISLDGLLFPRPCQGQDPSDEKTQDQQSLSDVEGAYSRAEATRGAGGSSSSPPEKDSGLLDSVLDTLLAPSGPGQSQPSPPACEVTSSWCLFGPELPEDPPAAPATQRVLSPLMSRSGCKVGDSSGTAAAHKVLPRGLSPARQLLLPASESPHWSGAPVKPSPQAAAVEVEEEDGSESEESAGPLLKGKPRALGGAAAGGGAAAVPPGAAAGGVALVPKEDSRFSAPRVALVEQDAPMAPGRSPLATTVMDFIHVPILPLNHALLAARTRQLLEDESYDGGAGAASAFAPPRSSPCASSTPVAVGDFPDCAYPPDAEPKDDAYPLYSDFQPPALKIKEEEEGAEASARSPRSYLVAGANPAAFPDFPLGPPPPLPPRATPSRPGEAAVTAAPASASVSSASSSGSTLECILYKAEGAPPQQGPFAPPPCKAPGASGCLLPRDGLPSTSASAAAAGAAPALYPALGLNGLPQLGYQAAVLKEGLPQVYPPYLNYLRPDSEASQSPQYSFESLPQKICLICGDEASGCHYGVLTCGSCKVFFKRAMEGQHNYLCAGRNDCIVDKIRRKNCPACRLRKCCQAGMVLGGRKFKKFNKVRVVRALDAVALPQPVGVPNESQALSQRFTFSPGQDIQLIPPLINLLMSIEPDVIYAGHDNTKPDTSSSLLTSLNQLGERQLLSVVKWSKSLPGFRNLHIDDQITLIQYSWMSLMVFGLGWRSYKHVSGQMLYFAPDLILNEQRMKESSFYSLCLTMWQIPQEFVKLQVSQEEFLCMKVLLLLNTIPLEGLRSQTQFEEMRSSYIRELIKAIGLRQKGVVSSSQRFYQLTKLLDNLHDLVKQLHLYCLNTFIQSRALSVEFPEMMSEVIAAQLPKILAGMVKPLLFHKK

[16] = target: T1, Glucocorticoid receptor; test: Inhibition of human glucocorticoid receptor

| SMILES | IC50 [1] [nM] | EC50 [2] [nM] | Emax at 1 µM [3] [%] | Efficacy [4] [%] | Activity [5] [%] | Activity [6] [%] | AUC [7] [ng·h/mL] | Activity [8] | Activity [9] | inhibition in vivo at 3 mg/kg [10] [%] | inhibition in vivo at 10 mg/kg [11] [%] | inhibition in vivo at 30 mg/kg [12] [%] | ED50 [13] [mg/kg] | inhibition [14] | IC50 [15] [nM] | IC50 [16] [nM] |
| --- | --- | --- | --- | --- | --- | --- | --- | --- | --- | --- | --- | --- | --- | --- | --- | --- |
| Cn1c(SCC(=O)[C@@]2(O)CC[C@H]3[C@@H]4CCC5=CC(=O)C=C[C@]5(C)[C@H]4[C@@H](O)C[C@@]32C)nc2ccccc21 | 47 | 235 | 4 | 11 | 58 | 4 | 960 | Active | Toxic | 23 | 50 | 71 | 10 | Active | 1370 | 7.3 |
| C[C@]12C=CC(=O)C=C1CC[C@@H]1[C@@H]2[C@@H](O)C[C@@]2(C)[C@H]1CC[C@]2(O)C(=O)CO [PREDNISOLONE] |  |  | 100 | 81 | 56 | 53 | 1250 |  |  | 43 | 81 | 111 | 5 |  |  |  |
